{"source": "patent US7581540B2", "about": "“Aerosol drug delivery device incorporating percussively activated heat packages” (Alexza Pharmaceuticals, Inc., priority 2004, dated 2009)", "key": {"[1]": {"conditions": "25° C.; cited from earlier work"}, "[2]": {"conditions": "cited from earlier work"}, "[3]": {"conditions": "350° C., air flow 28.3 L/min", "method": "To coat metal foils, the (nicotine)2-ZnBr2 complex was dissolved in chloroform. Two separate coating thickness of the (nicotine)2-ZnBr2 complex on stainless steel were prepared. A 169.4 mg/mL solution of (nicotine)2-ZnBr2 complex in chloroform and a 338.8 mg/mL solution of (nicotine)2-ZnBr2 complex in chloroform were made. Exposure to light was minimized at all times during and after formation of these solutions. The (nicotine)2-ZnBr2 complex for each solution was hand coated onto 0.005 inch thick stainless foils using a 10 uL Hamilton syringe. 5.9 uL of the 169.4 mg/mL (nicotine)2-ZnBr2 complex solution was coated onto both sides of an area of 1.27 cm×2.3 cm of stainless steel. This corresponds to a 2 μm film thickness coating which contained about 1 mg of nicotine. Similarly, 8.8 μL of the 338.8 mg/mL (nicotine)2-ZnBr2 complex solution was coated onto both sides of an area of 1.27 cm×2.3 cm of stainless steel. This corresponds to a […] film thickness coating which contained about […] of nicotine The coatings were dried under vacuum for about 1 hour at 25° C. The coatings of (nicotine)2-ZnBr2 complex were stored in a vacuum for at least 30 minutes and protected from light prior to use.\nThe coatings of (nicotine)2-ZnBr2 complex were vaporized by applying a current of 13.0V to the metal foil sufficient to heat the coatings to temperature of 350° C. The aerosol formed by vaporizing the coating in an air flow of 28.3 L/min was analyzed by collected the aerosol on oxalic acid coated filters using an 8 stage Anderson impactor. […] After vaporization the filters were extracted with 5 mL of 0.1% trifluoroacetic acid/DI H2O and analyzed by HPLC."}, "[4]": {"conditions": "for average nicotine purity of the aerosol: maximum temperature 300° C., air flow 20 L/min", "method": "The purity of nicotine in an aerosol produced by vaporizing thin films of (nicotine)2-ZnBr2 was also determined. The percent purity of nicotine in the aerosol was determined by comparing the area under the curve representing nicotine with the area under the curve for all other components separated by HPLC.\nThe coatings of (nicotine)2-ZnBr2 complex were vaporized by applying a current to the metal foil sufficient to heat the coatings to temperatures of 300° C., 350° C., and 400° C. The aerosol formed by vaporizing the coating in an air flow of 20 L/min was analyzed by collecting the aerosol on oxalic acid coated filters. The collected aerosol was extracted from the filters with 5 mL of an aqueous solution containing 0.1% TFA. A Varian HPLC system having a single XTerra RP18, 4.6×150 mm column, with an eluant solution comprising a 75% aqueous phase of perchloric acid solution with one ampoule of 1-octanesulfonic acid sodium salt concentrate at pH 2, and a 25% organic phase of acetonitrile was used. The HPLC was performed under isocratic run conditions for 20 minutes."}, "[5]": {"conditions": "airflow about 20 L/min"}, "[6]": {"assay": "drug aerosol purity and recovered yield after vaporization from a percussively ignited heat package, HPLC", "type": "physicochemical"}, "[7]": {"conditions": "smokeless nicotine products (chewing tobacco, oral snuff, tobacco sachets), buccal absorption"}}, "note": "Where two headings read alike, the source gives them in different places.", "data": [{"smiles": "CN1CCCC1c1cccnc1", "note": "(stereo not shown) [nicotine]", "values": [{"measurement": "vapor pressure", "setting": "[1]", "value": 0.0425, "unit": "mmHg"}, {"measurement": "time to attain nicotine blood level peak", "setting": "[2]; cigarette smoking", "value": "≤ 10", "unit": "min"}, {"measurement": "nicotine blood level peak", "setting": "[2]; produced by cigarettes", "value": "30 to 40", "unit": "ng/mL"}, {"measurement": "maximum nicotine blood concentration", "setting": "[2]; [7]", "value": "approximately 12 ng/mL"}, {"measurement": "time of use to attain maximum nicotine blood concentration", "setting": "[2]; [7]", "value": "approximately 30 minutes"}]}, {"smiles": "CN1CCCC1c1cccnc1.CN1CCCC1c1cccnc1.[Br][Zn][Br]", "note": "(stereo not shown) [(nicotine)2-ZnBr2]", "values": [{"measurement": "MMAD of the nicotine aerosol", "setting": "[3]; 2 μm thick film", "value": 2.00}, {"measurement": "purity of the nicotine aerosol", "setting": "[3]; 2 μm thick film", "value": "greater than 97%"}, {"measurement": "MMAD of the nicotine aerosol", "setting": "[3]; 6 μm thick film", "value": 1.79}, {"measurement": "purity of the nicotine aerosol", "setting": "[3]; 6 μm thick film", "value": "greater than 97%"}, {"measurement": "average nicotine purity of the aerosol", "setting": "[4]; 2 μm thick thin film", "value": "about 99.5%"}, {"measurement": "average nicotine purity of the aerosol", "setting": "[4]; 6 μm thick thin film", "value": "about 99.99%"}, {"measurement": "purity of nicotine aerosol from 6 μm film compared with 2 μm film", "setting": "[4]; for a given vaporization temperature", "value": "greater"}, {"measurement": "change of nicotine purity of the aerosol", "setting": "[4]; thin film heated to a maximum temperature of greater than 300° C.", "value": "decreased"}, {"measurement": "average yield of nicotine in the aerosol", "setting": "[5]; 2 μm thick thin film, temperature range 300° C. to 400° C.", "value": "about 60±7%"}, {"measurement": "average yield of nicotine in the aerosol", "setting": "[5]; 6 μm thick thin film, maximum temperature 300° C.", "value": "about 51±2%"}, {"measurement": "average yield of nicotine in the aerosol", "setting": "[5]; 6 μm thick thin film, maximum temperature 400° C.", "value": "about 73±1%"}]}, {"smiles": "CC(C)C(=O)OCC(=O)[C@@]12O[C@H](C3CCCCC3)O[C@@H]1C[C@H]1[C@@H]3CCC4=CC(=O)C=C[C@]4(C)[C@H]3[C@@H](O)C[C@@]12C", "note": "[ciclesonide]", "values": [{"measurement": "purity of the resultant aerosol", "setting": "[6]; percussively ignited heat package, greater than 800° C., air flow 20 L/min, film 1.58 μm alprazolam, 6.33 μm pramipexole, 2.53 μm ciclesonide", "value": 85.6, "unit": "%"}]}, {"smiles": "Cc1nnc2n1-c1ccc(Cl)cc1C(c1ccccc1)=NC2", "note": "[alprazolam]", "values": [{"measurement": "purity of the resultant aerosol", "setting": "[6]", "value": 96.8, "unit": "%"}, {"measurement": "recovered yield of aerosol", "setting": "[6]", "value": 100, "unit": "%"}]}]}
